pIC50: −log10 of the molar value. The source made the active and inactive calls. No cut-off for these calls is given here. A value given as a limit tells only on which side of the number the result lay.

Data set [1] relates to HeLa. The experiment in a line: Inhibition of serum-induced cell migration in human HeLa cells at 0.5 to 2 times IC50 measured up to 17 hrs by wound healing assay. Type of data set: functional, cell-based.
The next data set relates to L02. The experiment in a line: Cytotoxicity against human L02 cells by CCK8 assay. In kind it is cell-based.
Data set [2] concerns A549. Description: Cytotoxicity against human A549 cells by CCK8 assay. Type of data set: functional, cell-based. (In general: Formazan colour is commonly taken as a measure of viable cells.)
In data set [3] the test system is HeLa. Description: Cytotoxicity against human HeLa cells by CCK8 assay. Type of data set: functional, cell-based.
The subject of a further data set is HepG2. The experiment in a line: Cytotoxicity against human HepG2 cells by CCK8 assay. Type of data set: functional, cell-based.
The subject of data set [4] is A549. Description: Inhibition of serum-induced cell migration in human A549 cells at 0.5 to 2 times IC50 measured up to 46 hrs by wound healing assay. In kind it is functional, cell-based.
Another data set deals with MCF7. Description: Cytotoxicity against human MCF7 cells by CCK8 assay. Type of data set: functional, cell-based.
The subject of another data set is CNE-2. The experiment in a line: Cytotoxicity against human CNE2 cells by CCK8 assay. Type of data set: functional, cell-based.
Data set [5] can be described thus: Cytotoxicity against HUVEC12 cells by CCK8 assay. Type of data set: cell-based. The settings on record: Homo sapiens.
The nature of data set [6]: Inhibition of serum-induced cell migration in HUVEC12 cells at 0.5 to 2 times IC50 measured up to 17 hrs by wound healing assay. In kind it is cell-based. The settings on record: human.

One may read the pIC50 as the IC50 on a negative log10 scale, so that one unit is a factor of ten. For the compound `CC(=O)NC/C1=C/C=C/C[C@H]([C@@H]2CCC[C@H]2C(=O)O)OC(=O)C[C@H](O)[C@@H](C)C[C@@H](C)C[C@@H](C)C[C@H](C)[C@@H]1O`, the inhibition entry with HeLa [1] and in the data set with A549 [4] was “inactive” in each case. Moreover, the pIC50 with L02, with A549 [2], in the data set with HeLa [3], with HepG2, in the data set with MCF7 and in the data set on CNE-2 was below 4.30 each time. Further, in data set [5], the pIC50 was below 4.30.
On to `C[C@@H]1C[C@H](C)C[C@H](C)[C@@H](O)CC(=O)O[C@@H]([C@@H]2CCC[C@H]2C(=O)O)C/C=C/C=C(/C#N)[C@@H](O)[C@@H](C)C1`, for which the pIC50 in the data set with L02 is 5.06; with A549 [2] it was 5.04; in the data set with HeLa [3], 4.93; in the data set on HepG2, 4.84; in the data set with MCF7 it was 5.92; with CNE-2, 5.03. Moreover, in data set [5], the pIC50 is 4.92.
As for `C[C@@H]1C[C@H](C)C[C@H](C)[C@@H](O)CC(=O)O[C@@H]([C@@H]2CCC[C@H]2C(=O)O)C/C=C\C=C(/C#N)[C@@H](O)[C@@H](C)C1`, the inhibition entry in the data set with HeLa [1] and in the data set with A549 [4] was “Active” throughout. Also, the negative logarithm of the IC50 (pIC50) with L02 is 5.14; in the data set on A549 [2] it was 5.91; in the data set on HeLa [3], 5.89; in the data set on HepG2 it was 5.69; in the data set on MCF7, 6.92; in the data set with CNE-2 it was 5.90. The negative-log IC50 (pIC50) in [5] is 5.21. Moreover, the Activity result in [6] is reported as “Non-Toxic”.
On to `C[C@@H]1C[C@H](C)C[C@H](C)[C@@H](O)CC(=O)O[C@@H]([C@@H]2CCC[C@H]2C(=O)O)C/C=C/C=C(/C#N)[C@H](O)[C@@H](C)C1`, for which the negative-log IC50 (pIC50) in the data set on L02 was 6.01; in the data set with A549 [2], 5.77; in the data set on HeLa [3], 5.66; in the data set on HepG2, 5.66; in the data set on MCF7, 6.92; with CNE-2, 5.81. In [5], this compound showed a pIC50 of 5.84.
As to `COc1cccc2c1C(=O)c1c(O)c3c(c(O)c1C2=O)C[C@@](O)(C(=O)CO)C[C@@H]3O[C@H]1C[C@H](N)[C@H](O)[C@H](C)O1` [DOXORUBICIN], the pIC50 in the data set with L02 was 4.88; with A549 [2], 5.47; with HepG2, 5.95; in the data set on CNE-2, 5.45; in data set [5], 4.47.
As for `C[C@@H]1C[C@H](C)C[C@H](C)[C@@H](O)CC(=O)O[C@@H]([C@@H]2CCC[C@H]2C(=O)O)C/C=C\C=C(/C#N)[C@H](O)[C@@H](C)C1`, the negative logarithm of the IC50 (pIC50) in the data set on L02 is 4.64; with A549 [2] it was 4.82; in the data set on HeLa [3], 4.82; with HepG2 it was 4.76; with MCF7 it was 5.94; in the data set on CNE-2, 4.84. For the same compound, in data set [5], the pIC50 is 4.85.

For the origin of these results see ChEMBL document CHEMBL4219074, “Borrelidins F-I, cytotoxic and cell migration inhibiting agents from mangrove-derived Streptomyces rochei SCSIO ZJ89” (Bioorg Med Chem, 2018).
